Assay results from patent US20180085460A1, “METHODS OF TREATING PROSTATITIS” (Aquinox Pharmaceuticals (Canada) Inc., priority 2016, published 2018).

Assays:
Assay type in all cases: in vivo
[1] = system: carrageenan-induced prostatitis model in male Sprague-Dawley rats; assay: Pelvic pain (von Frey filaments) in carrageenan-induced prostatitis model
[2] = system: carrageenan-induced prostatitis model in male Sprague-Dawley rats; assay: as above; remark: listed apart in the source
Experimental: Animals were acclimatized to the laboratory conditions for at least 3 days before the start of experiments. Rats were housed in groups of 2 in polysulfone type Sealsafe plus GR900 cages (Tecniplast, Lyon, France) on a bed of wood chips with free access to food and water ad libitum. Species appropriate environmental enrichment was added to the cages. The animal house was maintained under artificial lighting 7:00 a.m. to 7:00 p.m. in a controlled ambient temperature of 22±2° C., and relative humidity maintained at 55±10%.
Mechanical stimulation was performed using von Frey filaments of different forces.
For each day of administration, the stock solution was allowed to equilibrate to room temperature under stirring, for at least 30 min.
Carrageenan was purchased from Sigma-Aldrich. Carrageenan (prepared fresh each day of injection) was dissolved in sterile physiological saline at a final concentration of 30 mg/mL (w/v).
Seven experimental groups of 10 animals were included in this study as described in the table below.
(§1) At D0, D+1, D+3 and D+7 administrations were performed 2 h prior to von Frey testing. […] On the morning of each experimental day, rats were weighed and administrations were performed at a volume of 5 mL/kg.
(§2) Surgical procedures were performed in morning, as follows: anaesthesia was induced by 5% isoflurane and maintained with 2.5% isoflurane for the duration of the procedure. The surgical area (lower abdomen above the penis) and the scrotal skin were shaved. An incision was made in the skin and abdominal wall to expose both ventral lobes of the prostate gland. Carrageenan (30 mg/mL) was injected in both right and left ventral lobes of the prostate (˜12.5 μL per lobe).
Control rats were injected with physiological saline under the same experimental conditions as carrageenan (i.e. i.prost., ˜12.5 μL per lobe).
After i.prost. injection, the wounds in both muscles were closed using absorbable suture and the skin layers were closed using permanent suture.
Pelvic pain was evaluated in a non-blinded manner by applying 6 von Frey filaments of increasing forces (0.16, 0.4, 0.6, 1, 1.4 and 2 g) to the scrotum area, with an interval of 5 seconds between each filament.
Prior to testing, the scrotal skin area designated for mechanical stimulation of each animal was shaved. Animals were placed on a raised wire mesh floor under individual transparent Plexiglas boxes and acclimatized for at least 30 min before starting the von Frey test. Filaments were then applied 1-2 seconds through the mesh floor with enough strength to cause the filament to slightly bend. Each filament was tested 3 times with an interval of 5 seconds between each application.
Nociceptive behavioral scores to von Frey filaments were assessed just before saline or carrageenan injection, in order to obtain basal values (D0), and at defined time points (D+1, D+3 and D+7) after saline or carrageenan injection.
Nociceptive behaviors were scored for each animal and each filament as follows: […]

[3] = system: carrageenan-induced pelvic pain in male Sprague-Dawley rats; assay: Previous study: carrageenan-induced pelvic pain, AQX-1125 3, 10 and 30 mg/kg
Text: An animal model of inflammation-induced pelvic pain for inflammatory CP/CPPS was developed and validated using intraprostatic (i.prost.) injection of carrageenan in male Sprague-Dawley rats (adapted from Radhakrishnan, R. and Nallu, R. S., 2009. Development and characterization of a novel animal model of prostate inflammation-induced chronic pelvic pain, Inflammopharmacology, 17: 23-28). This animal model was characterized by both referred mechanical allodynia (decreased mechanical threshold in response to innocuous von Frey forces) and referred mechanical hyperalgesia (increased nociceptive scores in response to noxious von Frey forces) (Augé C. et al., 2012, Nociceptive measures in chronic prostatitis: a model of inflammation-induced pelvic pain in rats, 14th World Congress on Pain (Milan, Italy)).

[4] = system: ventral prostate lobes of carrageenan-injected male Sprague-Dawley rats; assay: Ventral prostate lobes weight 7 days after carrageenan i.prost. injection; conditions: AQX-1125 0.3, 1, 3 or 10 mg/kg p.o.; seven days after carrageenan injection
Experimental: The whole prostate and ventral prostate lobes were weighed using a Scout® Pro balance (OHAUS, Nänikon, Switzerland).
as §1, with “AQX-1125 (0.3, 1, 3 and 10 mg/kg) or saline vehicle were administered orally (p.o.) once a day from D−3 to D+7 for a total of 11 administrations. At” for “At”
as §2
After blood sampling, rats were sacrificed by cervical dislocation and the whole prostates were rapidly collected and weighed. Then both ventral prostate lobes were dissected and weighed together.

[5] = Ibuprofen 300 mg/kg p.o. once at D+3, 1 h prior to testing, p<0.001

Row | Compound | nociceptive scores vs vehicle [1, 5] | nociceptive threshold vs vehicle [1, 5] | carrageenan-induced pelvic pain ([1]; Ibuprofen 300 mg/kg, 1 h after oral administration) | nociceptive threshold vs vehicle ([2]; AQX-1125 10 mg/kg p.o. once a day, D+1 p>0.05, D+3 and D+7 p<0.05) | AUC (0.16-2 g) of nociceptive scores vs vehicle ([2]; AQX-1125 10 mg/kg p.o., D+1 p>0.05, D+3 p<0.01, D+7 p<0.05) | nociceptive scores vs vehicle ([2]; AQX-1125 0.3, 1, 3 and 10 mg/kg p.o., all tested time-points (D+1, D+3, D+7)) | nociceptive threshold vs vehicle ([2]; AQX-1125 0.3, 1 and 3 mg/kg p.o. once a day, day 1, 3 and 7 post-carrageenan, p<0.05) | AUC (0.16-2 g) of nociceptive scores vs vehicle ([2]; AQX-1125 0.3, 1 and 3 mg/kg p.o., all tested time-points, p<0.01) | significance of effect on nociceptive scores ([2]; AQX-1125 all doses, 10 mg/kg at D1 p=0.0638) | anti-nociceptive properties beyond the optimal dose ([2]; AQX-1125 beyond 3 mg/kg (10 mg/kg p.o.)) | carrageenan-induced pelvic pain ([2]; AQX-1125 daily oral treatments at 0.3, 1 and 3 mg/kg) | dose at which maximal effect was reached ([2]; AQX-1125 p.o. once a day, doses tested 0.3, 1, 3 and 10 mg/kg) | anti-nociceptive properties on carrageenan-induced pelvic pain ([2]; AQX-1125 repeated oral treatments once a day during 11 days at 0.3, 1 and 3 mg/kg) | optimal dose for pain management ([2]; rat model of carrageenan-induced chronic prostatitis, p.o.) | anti-nociceptive properties on carrageenan-induced pelvic pain ([3]; AQX-1125 3, 10 and 30 mg/kg p.o. once a day during 11 days) | dose at which maximal effect was reached ([3]; doses tested 3, 10 and 30 mg/kg p.o.) | ventral prostate lobes weight as a ratio of whole prostate weight [4] | ventral prostate lobes weight expressed in mg [4]
1 | CC(C)Cc1ccc(C(C)C(=O)O)cc1 (racemic) [Ibuprofen, (RS)-2-(4-(2-methylpropyl)phenyl)propanoic acid] | decreases in nociceptive scores | a significant increase in the nociceptive threshold was observed | alleviated carrageenan-induced pelvic pain |  |  |  |  |  |  |  |  |  |  |  |  |  |  | 
2 | C=C1CC[C@H]2[C@H](CN)[C@@H]([C@@]3(C)CC[C@H](O)C[C@@H]3CO)CC[C@]12C [AQX-1125, (1S,3S,4R)-4-((4R,7aS)-4-(aminomethyl)-7a-methyl-1-methyleneoctahydro-1H-inden-5-yl)-3-(hydroxymethyl)-4-methylcyclohexanol] |  |  |  | reached the significance level only at day 3 and 7 | a significant effect was observed only at day 3 and 7 | decreases in nociceptive scores were observed | significantly and dose-dependently increased the nociceptive threshold | significant decreases in AUC (0.16-2 g) were observed | reached significance, except for the 10 mg/kg dose at D1 | less pronounced anti-nociceptive properties | significant and dose-related decreases in carrageenan-induced pelvic pain | 3 mg/kg | strong anti-nociceptive properties | 3 mg/kg | strong anti-nociceptive properties | 3 mg/kg | had no effect on ventral prostate lobes weights | had no effect on ventral prostate lobes weights
